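Dose response: 5 concentrations. Exposure: 48 h. Format: 96-well plates. Endpoint: linear interpolation; highest concentration if not reached. TGI denotes the concentration required for complete inhibition of growth.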
Experiments:
Experiment in all cases: NCI-60 cell line screen, 48 h
786-0 renal = test system: 786-0 renal
A498 renal = test system: A498 renal
A549 NSCLC = test system: A549 NSCLC
ACHN renal = test system: ACHN renal
BT-549 breast = test system: BT-549 breast
CAKI-1 renal = test system: CAKI-1 renal
CCRF-CEM leukemia = test system: CCRF-CEM leukemia
COLO 205 colon = test system: COLO 205 colon
DU-145 prostate = test system: DU-145 prostate
EKVX NSCLC = test system: EKVX NSCLC
HCC-2998 colon = test system: HCC-2998 colon
HCT-116 colon = test system: HCT-116 colon
HCT-15 colon = test system: HCT-15 colon
HL-60(TB) leukemia = test system: HL-60(TB) leukemia
HOP-62 NSCLC = test system: HOP-62 NSCLC
HOP-92 NSCLC = test system: HOP-92 NSCLC
HS 578T breast = test system: HS 578T breast
HT29 colon = test system: HT29 colon
IGROV1 ovarian = test system: IGROV1 ovarian
K-562 leukemia = test system: K-562 leukemia
KM12 colon = test system: KM12 colon
LOX IMVI melanoma = test system: LOX IMVI melanoma
M14 melanoma = test system: M14 melanoma
MALME-3M melanoma = test system: MALME-3M melanoma
MCF7 breast = test system: MCF7 breast
MDA-MB-231 breast = test system: MDA-MB-231 breast
MDA-MB-435 = test system: MDA-MB-435
MDA-N = test system: MDA-N
MOLT-4 leukemia = test system: MOLT-4 leukemia
NCI-H226 lung = test system: NCI-H226 lung
NCI-H23 lung = test system: NCI-H23 lung
NCI-H522 lung = test system: NCI-H522 lung
NCI/ADR-RES ovarian = test system: NCI/ADR-RES ovarian
OVCAR-4 ovarian = test system: OVCAR-4 ovarian
OVCAR-5 ovarian = test system: OVCAR-5 ovarian
OVCAR-8 ovarian = test system: OVCAR-8 ovarian
RPMI-8226 leukemia = test system: RPMI-8226 leukemia
SF-268 CNS = test system: SF-268 CNS
SF-295 CNS = test system: SF-295 CNS
SF-539 CNS = test system: SF-539 CNS
SK-MEL-2 melanoma = test system: SK-MEL-2 melanoma
SK-MEL-5 melanoma = test system: SK-MEL-5 melanoma
SK-OV-3 ovarian = test system: SK-OV-3 ovarian
SN12C renal = test system: SN12C renal
SNB-19 CNS = test system: SNB-19 CNS
SNB-75 CNS = test system: SNB-75 CNS
SR leukemia = test system: SR leukemia
SW-620 colon = test system: SW-620 colon
T-47D breast = test system: T-47D breast
TK-10 renal = test system: TK-10 renal
U251 CNS = test system: U251 CNS
UACC-257 melanoma = test system: UACC-257 melanoma
UACC-62 melanoma = test system: UACC-62 melanoma
UO-31 renal = test system: UO-31 renal
NCI-H460 lung = test system: NCI-H460 lung
OVCAR-3 ovarian = test system: OVCAR-3 ovarian
PC-3 prostate = test system: PC-3 prostate
RXF 393 renal = test system: RXF 393 renal
SK-MEL-28 melanoma = test system: SK-MEL-28 melanoma

Cc1ccc2[nH]c3c(c(=O)n(C)c(=O)n3C)c2c1
TGI (786-0 renal): > 100 µM
TGI (A498 renal): > 100 µM
TGI (A549 NSCLC): > 100 µM
TGI (ACHN renal): > 100 µM
TGI (BT-549 breast): > 100 µM
TGI (CAKI-1 renal): > 100 µM
TGI (CCRF-CEM leukemia): > 100 µM
TGI (COLO 205 colon): > 100 µM
TGI (DU-145 prostate): > 100 µM
TGI (EKVX NSCLC): > 100 µM
TGI (HCC-2998 colon): > 100 µM
TGI (HCT-116 colon): > 100 µM
TGI (HCT-15 colon): > 100 µM
TGI (HL-60(TB) leukemia): > 100 µM
TGI (HOP-62 NSCLC): > 100 µM
TGI (HOP-92 NSCLC): > 100 µM
TGI (HS 578T breast): > 100 µM
TGI (HT29 colon): > 100 µM
TGI (IGROV1 ovarian): > 100 µM
TGI (K-562 leukemia): > 100 µM
TGI (KM12 colon): > 100 µM
TGI (LOX IMVI melanoma): > 100 µM
TGI (M14 melanoma): > 100 µM
TGI (MALME-3M melanoma): > 100 µM
TGI (MCF7 breast): > 100 µM
TGI (MDA-MB-231 breast): > 100 µM
TGI (MDA-MB-435): > 100 µM
TGI (MDA-N): > 100 µM
TGI (MOLT-4 leukemia): > 100 µM
TGI (NCI-H226 lung): > 100 µM
TGI (NCI-H23 lung): > 100 µM
TGI (NCI-H522 lung): > 100 µM
TGI (NCI/ADR-RES ovarian): > 100 µM
TGI (OVCAR-4 ovarian): > 100 µM
TGI (OVCAR-5 ovarian): > 100 µM
TGI (OVCAR-8 ovarian): > 100 µM
TGI (RPMI-8226 leukemia): > 100 µM
TGI (SF-268 CNS): > 100 µM
TGI (SF-295 CNS): > 100 µM
TGI (SF-539 CNS): > 100 µM
TGI (SK-MEL-2 melanoma): > 100 µM
TGI (SK-MEL-5 melanoma): > 100 µM
TGI (SK-OV-3 ovarian): > 100 µM
TGI (SN12C renal): > 100 µM
TGI (SNB-19 CNS): > 100 µM
TGI (SNB-75 CNS): > 100 µM
TGI (SR leukemia): > 100 µM
TGI (SW-620 colon): > 100 µM
TGI (T-47D breast): > 100 µM
TGI (TK-10 renal): > 100 µM
TGI (U251 CNS): > 100 µM
TGI (UACC-257 melanoma): > 100 µM
TGI (UACC-62 melanoma): > 100 µM
TGI (UO-31 renal): > 100 µM

CCCCCCCCOC(=O)C12Oc3ccc(-c4ccc5c(c4O)C(O)=C4C(=O)CC(C)C(O)C4(C(=O)OCCCCCCCC)O5)c(O)c3C(O)=C1C(=O)CC(C)C2O (stereo unspecified)
TGI (786-0 renal): > 100 µM
TGI (A498 renal): > 100 µM
TGI (A549 NSCLC): > 100 µM
TGI (ACHN renal): 25.5 µM
TGI (BT-549 breast): 41.9 µM
TGI (CAKI-1 renal): 64.3 µM
TGI (CCRF-CEM leukemia): 17.9 µM
TGI (COLO 205 colon): 65.3 µM
TGI (DU-145 prostate): > 100 µM
TGI (EKVX NSCLC): > 100 µM
TGI (HCC-2998 colon): > 100 µM
TGI (HCT-116 colon): > 100 µM
TGI (HCT-15 colon): > 100 µM
TGI (HL-60(TB) leukemia): 9.61 µM
TGI (HOP-92 NSCLC): 42.5 µM
TGI (HS 578T breast): > 100 µM
TGI (HT29 colon): > 100 µM
TGI (IGROV1 ovarian): 61.3 µM
TGI (K-562 leukemia): 17.4 µM
TGI (KM12 colon): > 100 µM
TGI (LOX IMVI melanoma): > 100 µM
TGI (M14 melanoma): > 100 µM
TGI (MALME-3M melanoma): > 100 µM
TGI (MCF7 breast): 44.9 µM
TGI (MDA-MB-231 breast): 59.7 µM
TGI (MDA-MB-435): > 100 µM
TGI (MDA-N): > 100 µM
TGI (MOLT-4 leukemia): 60.6 µM
TGI (NCI-H226 lung): > 100 µM
TGI (NCI-H23 lung): 31.5 µM
TGI (NCI-H460 lung): > 100 µM
TGI (NCI-H522 lung): 48.2 µM
TGI (NCI/ADR-RES ovarian): > 100 µM
TGI (OVCAR-3 ovarian): > 100 µM
TGI (OVCAR-4 ovarian): > 100 µM
TGI (OVCAR-5 ovarian): 96.2 µM
TGI (OVCAR-8 ovarian): 35 µM
TGI (PC-3 prostate): > 100 µM
TGI (RXF 393 renal): 11.3 µM
TGI (SF-268 CNS): > 100 µM
TGI (SF-295 CNS): 48 µM
TGI (SF-539 CNS): 19.7 µM
TGI (SK-MEL-2 melanoma): 47.4 µM
TGI (SK-MEL-28 melanoma): > 100 µM
TGI (SK-MEL-5 melanoma): 48.7 µM
TGI (SK-OV-3 ovarian): > 100 µM
TGI (SN12C renal): > 100 µM
TGI (SNB-19 CNS): 36.8 µM
TGI (SNB-75 CNS): 25.5 µM
TGI (SR leukemia): 20.3 µM
TGI (SW-620 colon): > 100 µM
TGI (T-47D breast): > 100 µM
TGI (TK-10 renal): > 100 µM
TGI (U251 CNS): 27.5 µM
TGI (UACC-257 melanoma): > 100 µM
TGI (UACC-62 melanoma): 99.3 µM
TGI (UO-31 renal): 92.2 µM

Source: PubChem BioAssay (NCI)
